Results reported in patent publication US20250011330A1, “Imidazo[1,2- a]pyrazine and Imidazo[1,2- a]pyridine Based Tyrosyl-DNA Phosphodiesterase I (TDP1) Inhibitors” (The USA, As Represented by the Secretary, Department of …, priority 2021, published 2025).
pIC50: −log10 of the molar value.

target: TDP1 (Homo sapiens (Human), UniProt Q9NUW8); assay: TDP1 gel-based in vitro fluorescence assay; type: biochemical; details: Table 1, imidazo[1,2-a]pyridin-3-amines; read-out: IC50
Experimental: (§1) (TDP assay buffer: 50 mM Tris HCl, pH 7.5, 80 mM KCl, 2 mM EDTA, 1 mM DTT, 40 μg/ml BSA and 0.01% Tween-20. TDP1 (20 mg/mL in 25 mM Tris-HCl pH 7.2, 150 mM NaCl, 2 mM tris(2-carboxyethyl)phosphine) with 2 mL of well solution composed of 0.1 M MOPS/HEPES pH 7.5, 10% (w/v) PEG 8000, 20% (v/v) ethylene glycol, 0.03 M sodium fluoride, 0.03 M sodium bromide, 0.03 M sodium iodide, 0.03 M sodium bromide and sealed over […] well solution. AF647 labelling buffer: Tris-HCl (pH 7.2, 25 mM), NaCl (150 mM), and tris(2-carboxyethyl)phosphine hydrochloride (TCEP, 2 mM).)
(§2) (DNA only: Buffer+DMSO. DMSO only: Enzyme+DMSO. Drug: Enzyme+Drug, 25° C., 10 min+DNA, reaction at 25° C., 15 min.)
Gel images were scanned using a Typhoon FLA 9500 scanner (GE Healthcare) and densitometric analyses were performed using the ImageQuant software (GE Healthcare). The IC50 of TDP1 inhibitors was calculated by comparing the percentage of cleavage product (5′Cy5-[…]-p-3′) to DMSO control.

TDP1, sequence (Q9NUW8 whole entry): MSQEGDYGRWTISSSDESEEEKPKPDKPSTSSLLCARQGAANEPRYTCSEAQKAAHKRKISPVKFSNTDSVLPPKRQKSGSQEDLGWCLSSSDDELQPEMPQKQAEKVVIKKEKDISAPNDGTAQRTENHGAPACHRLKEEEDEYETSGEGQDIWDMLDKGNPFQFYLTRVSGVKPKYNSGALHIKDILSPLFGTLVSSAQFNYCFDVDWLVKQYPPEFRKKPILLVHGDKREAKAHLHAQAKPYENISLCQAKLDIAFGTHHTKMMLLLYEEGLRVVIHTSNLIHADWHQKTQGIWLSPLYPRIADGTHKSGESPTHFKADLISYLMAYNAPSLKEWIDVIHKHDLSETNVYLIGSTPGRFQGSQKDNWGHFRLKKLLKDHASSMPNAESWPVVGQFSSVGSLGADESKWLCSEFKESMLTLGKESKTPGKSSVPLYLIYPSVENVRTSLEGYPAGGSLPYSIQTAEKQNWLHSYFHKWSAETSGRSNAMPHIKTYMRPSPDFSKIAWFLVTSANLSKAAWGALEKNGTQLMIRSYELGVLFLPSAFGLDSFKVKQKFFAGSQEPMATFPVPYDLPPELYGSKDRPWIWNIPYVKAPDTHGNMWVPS

Structure (SMILES)	pIC50
c1ccc(Nc2c(-c3ccccc3)nc3ccccn23)cc1 [Compound 6t, N,2-Diphenylimidazo[1,2-a]pyridin-3-amine]	< 4.00
Cc1ccc(-c2nc3ccccn3c2Nc2ccc(C(=O)O)cc2)cc1 [Compound 8b, 4-((2-(p-Tolyl)imidazo[1,2-a]pyridin-3-yl)amino)benzoic acid]	4.83
O=C(O)c1ccc(Nc2c(-c3ccc(OCc4ccccc4)cc3)nc3ccccn23)cc1 [Compound 8c, 4-((2-(4-(Benzyloxy)phenyl)imidazo[1,2-a]pyridin-3-yl)amino)benzoic acid]	4.90
O=C(O)c1ccc(Nc2c(-c3ccc(C(F)(F)F)cc3)nc3ccccn23)cc1 [Compound 8d, 4-((2-(4-(Trifluoromethyl)phenyl)imidazo[1,2-a]pyridin-3-yl)amino)benzoic acid]	5.38
O=C(O)c1ccc(Nc2c(-c3ccc([N+](=O)[O-])cc3)nc3ccccn23)cc1 [Compound 8e, 4-((2-(4-Nitrophenyl)imidazo[1,2-a]pyridin-3-yl)amino)benzoic acid]	5.49
O=C(O)c1ccc(Nc2c(-c3ccc(O)cc3)nc3ccccn23)cc1 [Compound 8f, 4-((2-(4-Hydroxyphenyl)imidazo[1,2-a]pyridin-3-yl)amino)benzoic acid]	< 4.00
O=C(O)c1ccc(Nc2c(-c3ccc(S(=O)(=O)O)cc3)nc3ccccn23)cc1 [Compound 8g, 4-((2-(4-Sulfophenyl)imidazo[1,2-a]pyridin-3-yl)amino)benzoic acid]	< 4.00
O=C(O)c1ccc(Nc2c(-c3ccc(C(=O)O)cc3)nc3ccccn23)cc1 [Compound 8h, 4-(3-((4-Carboxyphenyl)amino)imidazo[1,2-a]pyridin-2-yl)benzoic acid]	< 4.00
O=C(O)c1ccc(-c2nc3ccccn3c2Nc2ccccc2)cc1 [Compound 8i, 4-(3-(Phenylamino)imidazo[1,2-a]pyridin-2-yl)benzoic acid]	4.40
O=C(O)c1ccc(Nc2c(-c3ccccc3C(=O)O)nc3ccc(C(=O)O)cn23)cc1 [Compound 8j, 2-(2-Carboxyphenyl)-3-((4-carboxyphenyl)amino)imidazo[1,2-a]pyridine-6-carboxylic acid]	< 4.00
O=C(O)c1ccc2nc(-c3ccccc3)c(Nc3ccccc3)n2c1 [Compound 8k, 2-Phenyl-3-(phenylamino)imidazo[1,2-a]pyridine-6-carboxylic acid]	5.62
O=C(O)c1ccc2nc(-c3ccccc3)c(Nc3ccc([N+](=O)[O-])cc3)n2c1 [Compound 8l, 3-((4-Nitrophenyl)amino)-2-phenylimidazo[1,2-a]pyridine-6-carboxylic acid]	4.66
CS(=O)(=O)c1ccc2nc(-c3ccc(-c4ccccc4)cc3)c(Nc3ccc(C(=O)O)cc3)n2c1 [Compound 8r, 4-((2-([1,1′-Biphenyl]-4-yl)-6-(methylsulfonyl)imidazo[1,2-a]pyridin-3-yl)amino)benzoic acid]	5.00

same assay, conditions: Table 2, imidazo[1,2-a]pyrazin-3-amine core; read-out: IC50

pIC50	Structure (SMILES)
< 3.00	CCOC(=O)c1ccc(Nc2c(-c3ccccc3O)nc3cnccn23)cc1 [Compound 7a]
< 3.00	COc1ccc(-c2nc3cnccn3c2Nc2ccc(C(N)=O)cc2)cc1 [Compound 7c]
3.90	O=C(O)c1ccc(Nc2c(-c3cccc(O)c3)nc3cnccn23)cc1 [Compound 7d]
4.70	O=C(O)c1ccc(Nc2c(-c3ccc(O)cc3)nc3cnccn23)cc1 [Compound 7e]
4.74	O=C(O)c1ccc(Nc2c(-c3ccccc3)nc3cnccn23)c(O)c1 [Compound 7f]
2.64	COc1ccccc1Nc1c(-c2ccc(C(=O)O)cc2)nc2cnccn12 [Compound 7g]
< 3.00	Cc1ccc(-c2nc3cnccn3c2Nc2ccc(C(N)=O)cc2)cc1 [Compound 7h]
< 3.00	CNC(=O)c1ccc(Nc2c(-c3ccccc3)nc3cnccn23)cc1 [Compound 7i]
< 3.00	COC(=O)c1cccc(Nc2c(-c3ccccc3O)nc3cnccn23)c1 [Compound 7j]
< 3.00	COC(=O)c1ccccc1Nc1c(-c2ccccc2O)nc2cnccn12 [Compound 7k]
3.43	O=C(O)c1cccc(Nc2c(-c3ccccc3O)nc3cnccn23)c1 [Compound 7m]
2.69	O=C(O)c1cccc(Nc2c(-c3cccc(O)c3)nc3cnccn23)c1 [Compound 7n]
3.67	O=C(O)c1cccc(Nc2c(-c3ccc(O)cc3)nc3cnccn23)c1 [Compound 7o]
3.03	O=C(O)c1cccc(Nc2c(-c3ccc(N4CCOCC4)cc3)nc3cnccn23)c1 [Compound 7p]
2.54	CN(C)c1ccc(-c2nc3cnccn3c2Nc2cccc(C(=O)O)c2)cc1 [Compound 7q]
< 3.00	CCOC(=O)c1cccc(Nc2c(-c3ccc(C(=O)O)cc3)nc3cnccn23)c1 [Compound 7r, 4-(3-((3-(ethoxycarbonyl)phenyl)amino)imidazo[1,2-a]pyrazin-2-yl)benzoic acid]
< 3.00	CN(C)c1ccc(-c2nc3cnccn3c2Nc2ccc(C(=O)O)cc2)cc1 [Compound 7v]
< 3.00	O=C(O)c1ccc(Nc2c(-c3ccc(Cl)cc3)nc3cnccn23)cc1 [Compound 7w]
< 3.00	O=C(O)c1ccc(Nc2c(-c3cccc(Cl)c3)nc3cnccn23)cc1 [Compound 7x]
< 3.00	O=C(O)c1ccc(Nc2c(-c3cccc(Br)c3)nc3cnccn23)cc1 [Compound 7y]
< 3.00	O=C(O)c1ccccc1Nc1c(-c2ccccc2O)nc2cnccn12 [Compound 7′s, 2-((2-(2-Hydroxyphenyl)imidazo[1,2-a]pyrazin-3-yl)amino)benzoic acid]
< 3.00	O=C(O)c1ccc(-c2nc3cnccn3c2Nc2cccc(C(=O)O)c2)cc1 [Compound 7′t, 3-((2-(4-Carboxyphenyl)imidazo[1,2-a]pyrazin-3-yl)amino)benzoic acid]
< 3.00	O=C(O)c1ccc(Nc2c(-c3ccc(F)cc3)nc3cnccn23)cc1 [Compound 7′z, 4-((2-(4-Fluorophenyl)imidazo[1,2-a]pyrazin-3-yl)amino)benzoic acid]
< 3.00	O=C(O)c1cccc(Nc2c(-c3ccccc3)nc3cnccn23)c1 [Compound 71]

same assay, conditions: Table 3, values in brackets (footnote vi); read-out: TDP1 IC50 (μM), separated data from previous experiments

Structure (SMILES)	IC50 [µM]
Cc1ccc(-c2nc3cnccn3c2Nc2cccc(C(=O)O)c2)cc1 [Compound M8]	233

same assay, conditions: Table 10, PROTACs; read-out: TDP1 IC50

pIC50	Structure (SMILES)
< 4.00	Cc1ncsc1-c1ccc(CNC(=O)[C@@H]2C[C@@H](O)CN2C(=O)[C@@H](NC(=O)COCCOCCOCCn2cc(COc3ccc(-c4nc5cc(-c6ccccc6)ccn5c4Nc4ccc(C(=O)O)cc4)cc3)nn2)C(C)(C)C)cc1 [XZ680, 4-((2-(4-((1-((S)-13-((2S,4R)-4-hydroxy-2-((4-(4-methylthiazol-5-yl)benzyl)carbamoyl)pyrrolidine-1-carbonyl)-14,14-dimethyl-11-oxo-3,6,9-trioxa-12-azapentadecyl)-1H-1,2,3-triazol-4-yl)methoxy)phenyl)-7-phenylimidazo[1,2-a]pyridin-3-yl)amino)benzoic acid]
< 4.00	Cc1ncsc1-c1ccc(CNC(=O)[C@@H]2C[C@@H](O)CN2C(=O)[C@@H](NC(=O)COCCOCCOCCOCCn2cc(COc3ccc(-c4nc5cc(-c6ccccc6)ccn5c4Nc4ccc(C(=O)O)cc4)cc3)nn2)C(C)(C)C)cc1 [XZ681, 4-((2-(4-((1-((S)-16-((2S,4R)-4-Hydroxy-2-((4-(4-methylthiazol-5-yl)benzyl)carbamoyl)pyrrolidine-1-carbonyl)-17,17-dimethyl-14-oxo-3,6,9,12-tetraoxa-15-azaoctadecyl)-1H-1,2,3-triazol-4-yl)methoxy)phenyl)-7-phenylimidazo[1,2-a]pyridin-3-yl)amino)benzoic acid]
< 4.00	Cc1ncsc1-c1ccc(CNC(=O)[C@@H]2C[C@@H](O)CN2C(=O)[C@@H](NC(=O)COCCOCCn2cc(-c3ccn4c(Nc5ccc(C(=O)O)cc5)c(-c5ccccc5)nc4c3)nn2)C(C)(C)C)cc1 [XZ682, 4-((7-(1-(2-(2-(2-(((S)-1-((2S,4R)-4-Hydroxy-2-((4-(4-methylthiazol-5-yl)benzyl)carbamoyl)pyrrolidin-1-yl)-3,3-dimethyl-1-oxobutan-2-yl)amino)-2-oxoethoxy)ethoxy)ethyl)-1H-1,2,3-triazol-4-yl)-2-phenylimidazo[1,2-a]pyridin-3-yl)amino)benzoic acid]

target: TDP2 (Homo sapiens (Human), UniProt O95551); assay: gel-based TDP2 fluorescence assay in vitro; type: biochemical; details: Table 7, HPLC-purified oxime leads; read-out: TDP2 IC50
Sequence (O95551 whole entry, species assumed): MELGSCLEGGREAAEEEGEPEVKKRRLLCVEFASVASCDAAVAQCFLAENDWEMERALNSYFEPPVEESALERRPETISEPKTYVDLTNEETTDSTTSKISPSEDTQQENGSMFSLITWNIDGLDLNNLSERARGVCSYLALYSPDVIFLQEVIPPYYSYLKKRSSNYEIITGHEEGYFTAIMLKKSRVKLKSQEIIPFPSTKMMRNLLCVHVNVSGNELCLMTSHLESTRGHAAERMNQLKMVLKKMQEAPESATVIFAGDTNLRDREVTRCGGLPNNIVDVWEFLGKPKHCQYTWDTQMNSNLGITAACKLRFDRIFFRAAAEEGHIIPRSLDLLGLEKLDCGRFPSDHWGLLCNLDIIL
Experimental: as §1, §2

pIC50	Structure (SMILES)
< 4.00	Cc1cncc(Oc2ccc(/C=N\OCc3ccc4nc(-c5ccccc5)c(Nc5ccc(C(=O)O)cc5)n4c3)cc2)n1 [XZ713, (Z)-4-((6-((((4-((6-Methylpyrazin-2-yl)oxy)benzylidene)amino)oxy)methyl)-2-phenylimidazo[1,2-a]pyridin-3-yl)amino)benzoic acid]

same assay, conditions: Table 10, PROTACs; read-out: TDP2 IC50

pIC50	Structure (SMILES)
< 4.00	Cc1ncsc1-c1ccc(CNC(=O)[C@@H]2C[C@@H](O)CN2C(=O)[C@@H](NC(=O)COCCOCCOCCn2cc(COc3ccc(-c4nc5cc(-c6ccccc6)ccn5c4Nc4ccc(C(=O)O)cc4)cc3)nn2)C(C)(C)C)cc1 [XZ680, 4-((2-(4-((1-((S)-13-((2S,4R)-4-hydroxy-2-((4-(4-methylthiazol-5-yl)benzyl)carbamoyl)pyrrolidine-1-carbonyl)-14,14-dimethyl-11-oxo-3,6,9-trioxa-12-azapentadecyl)-1H-1,2,3-triazol-4-yl)methoxy)phenyl)-7-phenylimidazo[1,2-a]pyridin-3-yl)amino)benzoic acid]
< 4.00	Cc1ncsc1-c1ccc(CNC(=O)[C@@H]2C[C@@H](O)CN2C(=O)[C@@H](NC(=O)COCCOCCOCCOCCn2cc(COc3ccc(-c4nc5cc(-c6ccccc6)ccn5c4Nc4ccc(C(=O)O)cc4)cc3)nn2)C(C)(C)C)cc1 [XZ681, 4-((2-(4-((1-((S)-16-((2S,4R)-4-Hydroxy-2-((4-(4-methylthiazol-5-yl)benzyl)carbamoyl)pyrrolidine-1-carbonyl)-17,17-dimethyl-14-oxo-3,6,9,12-tetraoxa-15-azaoctadecyl)-1H-1,2,3-triazol-4-yl)methoxy)phenyl)-7-phenylimidazo[1,2-a]pyridin-3-yl)amino)benzoic acid]
< 4.00	Cc1ncsc1-c1ccc(CNC(=O)[C@@H]2C[C@@H](O)CN2C(=O)[C@@H](NC(=O)COCCOCCn2cc(-c3ccn4c(Nc5ccc(C(=O)O)cc5)c(-c5ccccc5)nc4c3)nn2)C(C)(C)C)cc1 [XZ682, 4-((7-(1-(2-(2-(2-(((S)-1-((2S,4R)-4-Hydroxy-2-((4-(4-methylthiazol-5-yl)benzyl)carbamoyl)pyrrolidin-1-yl)-3,3-dimethyl-1-oxobutan-2-yl)amino)-2-oxoethoxy)ethoxy)ethyl)-1H-1,2,3-triazol-4-yl)-2-phenylimidazo[1,2-a]pyridin-3-yl)amino)benzoic acid]
